According to ChEMBL document CHEMBL4311936, “Synthesis and structure-activity relationship studies of IgG-binding peptides focused on the C-terminal histidine residue” (Medchemcomm, 2019):
Bridge positions count the residues as written; N and C are the ends. Peptide text beside a SMILES is read from it.

Tests used:
[1] = Binding affinity to IgG (unknown origin) assessed as dissociation constant; design: species or system Homo sapiens
Homo sapiens = species: Homo sapiens; assay: Binding affinity to IgG (unknown origin) assessed as association rate constant

Row | Structure (SMILES) | Kd [1] [nM] | Ka (Homo sapiens) [M⁻¹ s⁻¹]
1 | CC(C)C[C@@H]1NC(=O)[C@H](Cc2cnc[nH]2)NC(=O)[C@H](Cc2c[nH]c3ccccc23)NC(=O)[C@H](C)NC(=O)[C@@H]2CSSC[C@H](NC(=O)[C@H](Cc3c[nH]c4ccccc34)NC(=O)[C@H](C(C)C)NC(=O)[C@H](CC(C)C)NC(=O)[C@H](CCC(=O)O)NC(=O)CNC1=O)C(=O)N[C@@H]([C@@H](C)O)C(=O)N[C@H](C(=O)O)CSSC[C@H](N)C(=O)N[C@@H](CC(=O)O)C(=O)N2 | 2.45 | 
2 | CC(=O)N[C@@H](CC(=O)O)C(=O)N[C@H]1CSSC[C@@H](C(=O)N[C@H](C(=O)N[C@@H](Cc2ccccc2)C(=O)N[C@@H](Cc2cnc[nH]2)C(N)=O)[C@@H](C)O)NC(=O)[C@H](Cc2c[nH]c3ccccc23)NC(=O)[C@H](C(C)C)NC(=O)[C@H](CC(C)C)NC(=O)[C@H](CCC(=O)O)NC(=O)CNC(=O)[C@H](CCCCN)NC(=O)[C@H](Cc2cnc[nH]2)NC(=O)[C@H](Cc2ccc(O)cc2)NC(=O)[C@H](C)NC1=O (Ac-DCAYHKGELVWCTFH-NH2; disulfide 2-12) |  | 741000
3 | CC(=O)N[C@@H](CC(=O)O)C(=O)N[C@H]1CSSC[C@@H](C(=O)N[C@H](C(=O)N[C@@H](Cc2ccccc2)C(=O)N[C@@H](Cc2cnc[nH]2)C(N)=O)[C@@H](C)O)NC(=O)[C@H](Cc2c[nH]c3ccccc23)NC(=O)[C@H](C(C)C)NC(=O)[C@H](CC(C)C)NC(=O)[C@H](CCC(=O)O)NC(=O)CNC(=O)[C@H](CC(C)C)NC(=O)[C@H](Cc2cnc[nH]2)NC(=O)[C@H](Cc2ccc(O)cc2)NC(=O)[C@H](C)NC1=O (Ac-DCAYHLGELVWCTFH-NH2; disulfide 2-12) |  | 1.47e+06
4 | CC(C)C[C@@H]1NC(=O)[C@H](Cc2cnc[nH]2)NC(=O)[C@H](Cc2c[nH]c3ccccc23)NC(=O)[C@H](C)NC(=O)[C@@H](NC(=O)[C@H](CC(=O)O)NC(=O)[C@@H]2CCCN2)CSSC[C@@H](C(=O)N[C@H](C(=O)N2CCC[C@@H]2C(N)=O)[C@@H](C)O)NC(=O)[C@H](Cc2c[nH]c3ccccc23)NC(=O)[C@H](C(C)C)NC(=O)[C@H](CC(C)C)NC(=O)[C@H](CCC(=O)O)NC(=O)CNC1=O | 2.2 | 
